Measured values: article PMC12238723, “Phase I Clinical Trial of CVL218, a Novel PARP1/2 Inhibitor, in Patients with Advanced Solid Tumors” (MedComm, 2025)

Tested on: patients with advanced solid tumors
Assay: Treatment-related adverse events (CTCAE v5.0), phase I dose escalation
Assay type: in vivo
Excerpt: This study was a single‐arm, dose‐escalation phase I trial conducted in Sun Yat‐sen University Cancer Center in China. This study assessed CVL218 in patients with histologically or cytologically confirmed advanced solid tumors who were in PD after standard therapeutic regimens or lacked standard treatment options. Inclusion criteria included: age 18–75 years; with at least one measurable and evaluable target lesion per Response Evaluation Criteria in Solid Tumors 1.1 (RECIST 1.1); ECOG performance status of 0 or 1; adequate hematological, renal, cardiac, and hepatic functions and a life expectancy ≥12 weeks. Key exclusion criteria included prior usage of PARP inhibitors; allergic to the research drug or its components; with active, unstable systemic diseases or active, uncontrolled infection; a history of other malignancies within 5 years, and pregnant or lactating women.
CVL218 was administered orally, and this dose‐escalation trial included nine dose levels: 100 mg QD (50 mg BID), 200 mg QD (100 mg BID), 400 mg QD (200 mg BID), 700 mg QD (350 mg BID), 1000 mg QD (500 mg BID), 1200 mg QD (600 mg BID), 1400 mg QD (700 mg BID), 1700 mg QD (850 mg BID), and 2000 mg QD (1000 mg BID). Patients enrolled in the study received a single oral dose on the first day, followed by continuous multiple dosing (twice a day taking 12 h apart) after 72 h, with the treatment cycle lasting 4 weeks. The period during which patients received a single dose is designated as cycle 0 (C0), lasting 72 h. After this period, patients begin multiple dosing, referred to as cycle 1 (C1). An initial accelerated titration design was employed for the three lowest dose groups, and the “3+3” design was applied starting with the 300 mg BID cohort.
The primary objectives were to assess safety and tolerability as well as to determine the MTD, DLT, and dose recommended for further study. DLT was defined as any of the following events occurring during cycle 0 (including 72 h wash‐out period after a single dose) and cycle 1 per Common Terminology Criteria for Adverse Events (CTCAE) version 5.0: grade 4 anemia; grade 4 neutropenia; grade 3 neutropenia with fever ≥38.5°C; grade 4 thrombocytopenia; grade 3 thrombocytopenia associated with bleeding; grade ≥2 neurotoxicity; any other grade ≥3 nonhematological toxicities (excluding alopecia). The secondary objectives were to assess the PK and preliminary efficacy of CVL218.
Subjects who received at least one dose of CVL218 with postadministration safety records were included in safety analysis set. Subjects who received at least one dose of CVL218 with at least one evaluable PK parameter were included in PK analysis set. Per‐protocol set were used for efficacy analysis. Descriptive statistics of safety were presented per CTCAE v5.0. The PK parameters T max and T 1/2 were shown as the median (min, max) and mean ± SD, respectively. A two‐sided p < 0.05 was considered to indicate statistical significance. Statistical analysis was performed by using GraphPad prism 8.0.2 and R‐4.3.3.

CNCc1ccc(-c2cc3cc(F)cc(C(N)=O)c3o2)cc1.Cl [CVL218]
Musculoskeletal discomfort (850 mg BID, ≥G3): 0 n (%) | Musculoskeletal disorders (850 mg BID, ≥G3): 0 n (%) | Nausea (850 mg BID, ≥G3): 0 n (%) | Nervous system disorders (850 mg BID, ≥G3): 0 n (%) | Neutrophil count decreased (850 mg BID, ≥G3): 0 n (%) | Neutrophil count increased (850 mg BID, ≥G3): 0 n (%) | Palpitations (850 mg BID, ≥G3): 0 n (%) | Protein urine present (850 mg BID, ≥G3): 0 n (%) | Proteinuria (850 mg BID, ≥G3): 0 n (%) | Rash (850 mg BID, ≥G3): 0 n (%) | Renal & urinary disorders (850 mg BID, ≥G3): 0 n (%) | Renal failure (850 mg BID, ≥G3): 0 n (%) | Reproductive disorders (850 mg BID, ≥G3): 0 n (%) | Skin disorders (850 mg BID, ≥G3): 0 n (%) | Urinary occult blood positive (850 mg BID, ≥G3): 0 n (%) | Vomiting (850 mg BID, ≥G3): 0 n (%) | WBC count decreased (850 mg BID, ≥G3): 0 n (%) | WBC count increased (850 mg BID, ≥G3): 0 n (%) | ALT increased (All (N = 26), ALL): 4 (15.4) n (%) | AST increased (All (N = 26), ALL): 2 (7.7) n (%) | Abdominal distension (All (N = 26), ALL): 1 (3.8) n (%) | Abdominal pain (All (N = 26), ALL): 1 (3.8) n (%) | Abdominal pain upper (All (N = 26), ALL): 1 (3.8) n (%) | Amylase increased (All (N = 26), ALL): 2 (7.7) n (%) | Anemia (All (N = 26), ALL): 2 (7.7) n (%) | Any AE related to study drug (All (N = 26), ALL): 26 (100) n (%) | Asthenia (All (N = 26), ALL): 2 (7.7) n (%) | Blood creatinine increased (All (N = 26), ALL): 5 (19.2) n (%) | Blood system disorders (All (N = 26), ALL): 2 (7.7) n (%) | Blood triglycerides increased (All (N = 26), ALL): 1 (3.8) n (%) | Blood urea increased (All (N = 26), ALL): 1 (3.8) n (%) | Cardiac disorders (All (N = 26), ALL): 1 (3.8) n (%) | Chest discomfort (All (N = 26), ALL): 2 (7.7) n (%) | Constipation (All (N = 26), ALL): 2 (7.7) n (%) | Decreased appetite (All (N = 26), ALL): 5 (19.2) n (%) | Diarrhea (All (N = 26), ALL): 10 (38.5) n (%) | Dizziness (All (N = 26), ALL): 3 (11.5) n (%) | Erectile dysfunction (All (N = 26), ALL): 1 (3.8) n (%) | Gastrointestinal disorders (All (N = 26), ALL): 24 (92.3) n (%) | General disorders (All (N = 26), ALL): 4 (15.4) n (%) | Gingival bleeding (All (N = 26), ALL): 1 (3.8) n (%) | Granulocyte count increased (All (N = 26), ALL): 1 (3.8) n (%) | Headache (All (N = 26), ALL): 2 (7.7) n (%) | Hypoalbuminemia (All (N = 26), ALL): 2 (7.7) n (%) | Infusion site pain (All (N = 26), ALL): 1 (3.8) n (%) | Laboratory test disorders (All (N = 26), ALL): 15 (57.7) n (%) | Limb discomfort (All (N = 26), ALL): 1 (3.8) n (%) | Lipase increased (All (N = 26), ALL): 6 (23.1) n (%) | Metabolic disorders (All (N = 26), ALL): 6 (23.1) n (%) | Musculoskeletal discomfort (All (N = 26), ALL): 1 (3.8) n (%) | Musculoskeletal disorders (All (N = 26), ALL): 1 (3.8) n (%) | Nausea (All (N = 26), ALL): 20 (76.9) n (%) | Nervous system disorders (All (N = 26), ALL): 4 (15.4) n (%) | Neutrophil count decreased (All (N = 26), ALL): 1 (3.8) n (%) | Neutrophil count increased (All (N = 26), ALL): 2 (7.7) n (%) | Palpitations (All (N = 26), ALL): 1 (3.8) n (%) | Protein urine present (All (N = 26), ALL): 1 (3.8) n (%) | Proteinuria (All (N = 26), ALL): 6 (23.1) n (%) | Rash (All (N = 26), ALL): 3 (11.5) n (%) | Renal & urinary disorders (All (N = 26), ALL): 7 (26.9) n (%) | Renal failure (All (N = 26), ALL): 3 (11.5) n (%) | Reproductive disorders (All (N = 26), ALL): 1 (3.8) n (%) | Skin disorders (All (N = 26), ALL): 3 (11.5) n (%) | Urinary occult blood positive (All (N = 26), ALL): 1 (3.8) n (%) | Vomiting (All (N = 26), ALL): 20 (76.9) n (%) | WBC count decreased (All (N = 26), ALL): 1 (3.8) n (%) | WBC count increased (All (N = 26), ALL): 2 (7.7) n (%) | ALT increased (All (N = 26), ≥G3): 0 n (%) | AST increased (All (N = 26), ≥G3): 0 n (%) | Abdominal distension (All (N = 26), ≥G3): 0 n (%) | Abdominal pain (All (N = 26), ≥G3): 1 (3.8) n (%) | Abdominal pain upper (All (N = 26), ≥G3): 0 n (%) | Amylase increased (All (N = 26), ≥G3): 0 n (%) | Anemia (All (N = 26), ≥G3): 0 n (%) | Any AE related to study drug (All (N = 26), ≥G3): 4 (15.4) n (%) | Asthenia (All (N = 26), ≥G3): 0 n (%) | Blood creatinine increased (All (N = 26), ≥G3): 3 (11.5) n (%) | Blood system disorders (All (N = 26), ≥G3): 0 n (%) | Blood triglycerides increased (All (N = 26), ≥G3): 0 n (%) | Blood urea increased (All (N = 26), ≥G3): 1 (3.8) n (%) | Cardiac disorders (All (N = 26), ≥G3): 0 n (%) | Chest discomfort (All (N = 26), ≥G3): 0 n (%) | Constipation (All (N = 26), ≥G3): 0 n (%) | Decreased appetite (All (N = 26), ≥G3): 0 n (%) | Diarrhea (All (N = 26), ≥G3): 0 n (%) | Dizziness (All (N = 26), ≥G3): 0 n (%) | Erectile dysfunction (All (N = 26), ≥G3): 0 n (%) | Gastrointestinal disorders (All (N = 26), ≥G3): 1 (3.8) n (%) | General disorders (All (N = 26), ≥G3): 0 n (%) | Gingival bleeding (All (N = 26), ≥G3): 0 n (%) | Granulocyte count increased (All (N = 26), ≥G3): 0 n (%) | Headache (All (N = 26), ≥G3): 0 n (%) | Hypoalbuminemia (All (N = 26), ≥G3): 0 n (%) | Infusion site pain (All (N = 26), ≥G3): 0 n (%) | Laboratory test disorders (All (N = 26), ≥G3): 4 (15.4) n (%) | Limb discomfort (All (N = 26), ≥G3): 0 n (%) | Lipase increased (All (N = 26), ≥G3): 1 (3.8) n (%) | Metabolic disorders (All (N = 26), ≥G3): 0 n (%) | Musculoskeletal discomfort (All (N = 26), ≥G3): 0 n (%) | Musculoskeletal disorders (All (N = 26), ≥G3): 0 n (%) | Nausea (All (N = 26), ≥G3): 0 n (%) | Nervous system disorders (All (N = 26), ≥G3): 0 n (%) | Neutrophil count decreased (All (N = 26), ≥G3): 0 n (%) | Neutrophil count increased (All (N = 26), ≥G3): 0 n (%) | Palpitations (All (N = 26), ≥G3): 0 n (%) | Protein urine present (All (N = 26), ≥G3): 0 n (%) | Proteinuria (All (N = 26), ≥G3): 0 n (%) | Rash (All (N = 26), ≥G3): 0 n (%) | Renal & urinary disorders (All (N = 26), ≥G3): 0 n (%) | Renal failure (All (N = 26), ≥G3): 0 n (%) | Reproductive disorders (All (N = 26), ≥G3): 0 n (%) | Skin disorders (All (N = 26), ≥G3): 0 n (%) | Urinary occult blood positive (All (N = 26), ≥G3): 0 n (%) | Vomiting (All (N = 26), ≥G3): 0 n (%) | WBC count decreased (All (N = 26), ≥G3): 0 n (%) | WBC count increased (All (N = 26), ≥G3): 0 n (%) | TRAE of any grade: diarrhea (all 26 patients): 38.5% | TRAE of any grade: lipase increased (all 26 patients): 23.1% | TRAE of any grade: nausea (all 26 patients): 76.9% | TRAE of any grade: proteinuria (all 26 patients): 23.1% | TRAE of any grade: vomiting (all 26 patients): 76.9% | patients with ≥grade 3 TRAEs (all 26 patients): 15.4% | ≥grade 3 TRAE: abdominal pain (all 26 patients): 3.8% | anemia of grade 3 or more severe (in vivo): None of the anemias were of grade 3 or more severe | grade ≥3 gastrointestinal AEs (in vivo): 3.8% | patients with gastrointestinal reactions (in vivo): 92.3% | ≥grade 3 TRAE: blood creatinine increased (in vivo): 11.5% | ≥grade 3 TRAE: blood urea increased (in vivo): 3.8% | ≥grade 3 TRAE: lipase increased (in vivo): 3.8%
